Source: patent US20250215030A1, “STAT MODULATORS AND USES THEREOF” (Recludix Pharma, Inc., priority 2022, published 2025)
Where two headings read alike, the source gives them in different places.

Experiments:
pSTAT3 (pY705-STAT3) = molecular target: T1, pSTAT3 (pY705-STAT3) (Homo sapiens, UniProt P40763); test: MSD-pSTAT-PBMC Assay (pSTAT3, IL-6 stimulated); type: cell-based
T1 construct: host or cells: cryopreserved PBMC
Description: Cryopreserved Peripheral Blood Mononuclear Cells (PBMC) are from AllCells. Recombinant Human IL-4 and IL-6 are from Peprotech. Mouse monoclonal anti-STAT3 antibody, rabbit monoclonal anti-pY705-STAT3 antibody, rabbit monoclonal Anti-pY641-STAT6 antibody, and lysis buffer are from Cell Signaling Technology (CST). Mouse monoclonal anti-STAT6 antibody is from BioLegend. Assay plates, blocker, and anti-rabbit secondary antibody are from Meso Scale Discovery (MSD).
Cryopreserved PBMCs were thawed out and allowed to recover overnight in IMDM+10% heat-inactivated FBS prior to plating 50,000 (STAT3) or 25,000 (STAT6) cells per well in 96-well U-bottom tissue culture plates. Cells were treated with compound for 3 hrs, then stimulated with 10 ng/mL IL-6 (STAT3) or 1 ng/mL IL-4 (STAT6) for 10 min. Cells were then spun down and washed with ice-cold PBS prior to lysing the cell pellet with 1× lysis buffer (CST) with 1× HALT protease and phosphatase inhibitor cocktail (Thermo). Lysates were transferred to and incubated overnight at 4° C. with shaking in QuickPlex 96-well high bind assay plates (MSD) pre-coated overnight with 30 μL per well of 0.6 μg/mL mouse monoclonal anti-STAT3 antibody (STAT3) or 2 μg/mL mouse monoclonal anti-STAT6 antibody (STAT6) in 1×PBS, and pre-blocked for 1 hour with 3% Blocker-A (MSD). Captured protein in the assay plates were then washed and probed with 25 μL per well of 0.25 μg/ml rabbit monoclonal anti-pY705-STAT3 antibody (STAT3) or 0.18 μg/ml rabbit monoclonal Anti-pY641-STAT6 antibody (STAT6) in 1% Blocker-A for 1 hour at room temperature with shaking, then washed and probed with 25 ul per well of 1 ug/mi Sulfo-TAG Labeled Goat Anti-Rabbit Antibody (MSD) in 1% Blocker-A for 1 hour at room temperature with shaking. Assay plates were then washed and 150 μL of 1× Read Buffer-T (MSD) was added to each well prior to reading on an SQ120 MSD Plate Reader. Assay signal from each sample was subtracted by the signal from unstimulated control wells and normalized to DMSO control wells. IC50 values were calculated using Graph Pad Prism Dose-Response Nonlinear Regression with variable slope. For both pSTAT3 and pSTAT6 A=≤100 nM; B=>100-1000 nM; C=>1000-3000 nM; and D=>3 μM.

[1] = molecular target: T2, Recombinant STAT6 protein (STAT6(W123-T658)) (Homo sapiens, UniProt P42226); test: STAT6 Fluorescence Polarization (FP) Assay; type: binding; details: STAT6(W123-T658) 250 nM, probe 5-FAM-ApYKPFQDLI-NH2 2 nM, 45-minute incubation
T2 construct: STAT6(W123-T658)
T2 sequence (P42226 123-658): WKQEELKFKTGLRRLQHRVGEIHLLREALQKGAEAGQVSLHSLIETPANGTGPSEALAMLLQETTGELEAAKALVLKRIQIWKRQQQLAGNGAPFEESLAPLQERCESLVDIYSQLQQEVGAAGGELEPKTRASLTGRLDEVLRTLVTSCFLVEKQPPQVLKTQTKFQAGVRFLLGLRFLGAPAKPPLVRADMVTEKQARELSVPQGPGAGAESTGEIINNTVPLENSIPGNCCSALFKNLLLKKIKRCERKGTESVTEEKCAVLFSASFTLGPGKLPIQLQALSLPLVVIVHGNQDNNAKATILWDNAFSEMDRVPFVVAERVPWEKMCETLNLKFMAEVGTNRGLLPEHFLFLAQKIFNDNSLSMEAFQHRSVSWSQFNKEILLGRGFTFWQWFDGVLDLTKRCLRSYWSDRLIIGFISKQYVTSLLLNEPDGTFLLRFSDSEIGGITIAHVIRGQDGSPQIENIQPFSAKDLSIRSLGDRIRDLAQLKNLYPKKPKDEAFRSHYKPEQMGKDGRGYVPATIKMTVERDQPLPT
Method in brief: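 Competitive displacement of a fluorescent phosphotyrosine peptide (2 nM) from recombinant STAT6 W123-T658 (250 nM), 45 min at room temperature in 10 mM HEPES pH 7.4, 50 mM NaCl, 2 mM DTT. mP fitted against log compound for IC50, grouped A (≤300 nM) to D (>30 μM).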

[2] = molecular target: T3, Recombinant STAT3 protein (STAT3(G127-I722)) (Homo sapiens, UniProt P40763); test: STAT3 Fluorescence Polarization (FP) Assay; type: binding; details: STAT3(G127-I722) 25 nM, probe 5-FAM-GpYLPQTV-NH2 2 nM, 45-minute incubation
T3 construct: STAT3(G127-I722)
T3 sequence (P40763 127-722, species assumed): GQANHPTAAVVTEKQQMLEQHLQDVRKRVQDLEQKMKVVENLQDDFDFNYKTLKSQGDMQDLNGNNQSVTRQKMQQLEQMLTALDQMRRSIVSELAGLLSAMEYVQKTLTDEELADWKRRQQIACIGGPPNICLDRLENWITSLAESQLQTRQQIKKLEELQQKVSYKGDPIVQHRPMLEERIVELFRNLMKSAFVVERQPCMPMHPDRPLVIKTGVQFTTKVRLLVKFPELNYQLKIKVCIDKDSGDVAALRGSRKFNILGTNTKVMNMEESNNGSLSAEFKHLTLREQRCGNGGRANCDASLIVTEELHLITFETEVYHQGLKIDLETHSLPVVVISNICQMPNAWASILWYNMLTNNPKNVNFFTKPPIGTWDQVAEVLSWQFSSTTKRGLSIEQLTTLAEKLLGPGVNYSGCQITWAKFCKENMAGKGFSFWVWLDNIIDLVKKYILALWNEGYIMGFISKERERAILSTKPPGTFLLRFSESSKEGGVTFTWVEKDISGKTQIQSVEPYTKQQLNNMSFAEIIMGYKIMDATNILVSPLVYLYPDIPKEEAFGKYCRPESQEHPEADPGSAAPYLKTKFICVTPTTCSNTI
Method in brief: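 Serially diluted compounds (1% DMSO) were mixed with 2 nM fluorescent phosphotyrosine peptide and 25 nM STAT3 construct G127-I722, pH 7.4, incubated 45 min at room temperature. IC50 values from fitted polarization curves are reported as categories A (≤100 nM), B, C, D (>10 μM).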

[3] = PBMC, compound 3 hrs, then 10 ng/mL IL-6 for 10 min, MSD pY705-STAT3, read-out: pSTAT3

T1 sequence (P40763 whole entry): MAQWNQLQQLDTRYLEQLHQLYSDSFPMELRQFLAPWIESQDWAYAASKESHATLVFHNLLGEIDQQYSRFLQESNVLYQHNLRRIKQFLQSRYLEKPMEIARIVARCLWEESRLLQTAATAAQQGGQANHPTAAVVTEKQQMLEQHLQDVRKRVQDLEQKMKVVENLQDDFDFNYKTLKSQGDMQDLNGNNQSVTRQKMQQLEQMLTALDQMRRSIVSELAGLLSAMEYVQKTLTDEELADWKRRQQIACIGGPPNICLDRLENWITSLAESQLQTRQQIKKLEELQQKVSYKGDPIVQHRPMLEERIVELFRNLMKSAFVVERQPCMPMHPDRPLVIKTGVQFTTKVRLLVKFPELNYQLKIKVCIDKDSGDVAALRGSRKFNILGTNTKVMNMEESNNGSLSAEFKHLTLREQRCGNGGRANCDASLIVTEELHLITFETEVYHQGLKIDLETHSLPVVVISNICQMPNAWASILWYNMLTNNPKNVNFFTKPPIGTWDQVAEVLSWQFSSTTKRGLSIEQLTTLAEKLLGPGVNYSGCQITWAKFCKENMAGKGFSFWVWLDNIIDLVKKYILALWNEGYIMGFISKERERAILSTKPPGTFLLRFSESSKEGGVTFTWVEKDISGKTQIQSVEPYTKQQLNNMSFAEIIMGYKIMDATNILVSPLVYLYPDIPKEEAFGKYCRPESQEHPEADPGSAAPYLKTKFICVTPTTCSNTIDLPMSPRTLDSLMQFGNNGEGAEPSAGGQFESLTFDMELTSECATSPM

Structure (SMILES) | IC50 (pSTAT3 (pY705-STAT3); [3]) | IC50 [1] | IC50 [2] | other results
CCCOC(=O)[C@H](C)NP(=O)(Oc1ccccc1)C(F)c1ccc2sc(C(=O)N[C@H]3C[C@H]4C[C@H]4C[C@H]4CC[C@@H](C(=O)N5CC(c6cnccc6C)C5)N4C3=O)cc2c1 (stereo partly drawn) [Compound 321, propyl ((fluoro(2-(((3S,6S,7aR,8aS,9aR)-3-(3-(4-methylpyridin-3-yl)azetidine-1-carbonyl)-5-oxodecahydro-1H-cyclopropa[d]pyrrolo[1,2-a]azocin-6-yl)carbamoyl)benzo[b]thiophen-5-yl)methyl)(phenoxy)phosphoryl)-L-alaninate] | < 0.1 µM |  |  | 
CC(C)OC(=O)COP(=O)(Oc1ccccc1)C(F)(F)c1ccc2sc(C(=O)N[C@H]3C[C@@H]4C[C@@H]4C[C@H]4CC[C@@H](C(=O)N5CC(C(=O)N6CCOCC6)C5)N4C3=O)cc2c1 (stereo partly drawn) [Compound 194, isopropyl 2-(((difluoro(2-(((3S,6S,7aS, 8aR,9aR)-3-(3-(morpholine-4-carbonyl)azetidine-1-carbonyl)-5-oxodecahydro-1H-cyclopropa[d]pyrrolo[1,2-a]azocin-6-yl)carbamoyl)benzo[b]thiophen-5-yl)methyl) (phenoxy)phosphoryl)oxy) acetate] | 0.1 to 1 µM |  |  | 
CC(C)OC(=O)[C@H](C)NP(=O)(Oc1ccccc1)C(F)c1ccc2sc(C(=O)N[C@H]3C[C@@H]4C[C@@H]4C[C@H]4CC[C@@H](C(=O)N5CC(C(=O)N6CCOCC6)C5)N4C3=O)cc2c1 (stereo partly drawn) [Compound 153, isopropyl ((fluoro(2-(((3S,6S,7aS, 8aR,9aR)-3-(3-(morpholine-4-carbonyl)azetidine-1-carbonyl)-5-oxodecahydro-1H-cyclopropa[d]pyrrolo[1,2-a]azocin-6-yl)carbamoyl)benzo[b]thiophen-5-yl)methyl)phenoxy) phosphoryl)-L-alaninate] | 0.1 to 1 µM |  |  | 
CCCOC(=O)[C@H](C)N[P@](=O)(Oc1ccccc1)[C@H](F)c1ccc2sc(C(=O)N[C@H]3C[C@H]4C[C@H]4C[C@H]4CC[C@@H](C(=O)N5CC(c6cnccc6N6CCOCC6)C5)N4C3=O)cc2c1 [Compound 395, propyl((R)-((S)-fluoro(2-(((3S,6S,7aR,8aS,9aR)-3-(3-(4-morpholinopyridin-3-yl)azetidine-1-carbonyl)-5-oxodecahydro-1H-cyclopropa[d]pyrrolo[1,2-a]azocin-6-yl)carbamoyl)benzo[b]thiophen-5-yl)methyl)(phenoxy)phosphoryl)-L-alaninate] |  |  |  | IC50 (pSTAT3 (pY705-STAT3)): < 0.1 µM
CCCOC(=O)[C@H](C)N[P@@](=O)(Oc1ccccc1)[C@H](F)c1ccc2sc(C(=O)N[C@H]3C[C@H]4C[C@H]4C[C@H]4CC[C@@H](C(=O)N5CC(c6cnccc6N(C)C)C5)N4C3=O)cc2c1 [Compound 398, propyl((R)-((S)-(2-(((3S,6S,7aR,8aS,9aR)-3-(3-(4-(dimethylamino)pyridin-3-yl)azetidine-1-carbonyl)-5-oxodecahydro-1H-cyclopropa[d]pyrrolo[1,2-a]azocin-6-yl)carbamoyl)benzo[b]thiophen-5-yl)fluoromethyl)(phenoxy)phosphoryl)-L-ananinate] | < 0.1 µM |  |  | 
CCCOC(=O)[C@H](C)N[P@](=O)(Oc1ccccc1)[C@@H](F)c1ccc2sc(C(=O)N[C@H]3C[C@@H]4C[C@@H]4C[C@H]4CC[C@@H](C(=O)N5C[C@H](c6cccnc6)[C@@H](C#N)C56CC6)N4C3=O)cc2c1 (single isomer, unassigned) [Compound 430] | > 3 µM |  |  | 
CCCOC(=O)[C@H](CC)NP(=O)(Oc1ccccc1)C(F)c1ccc2sc(C(=O)N[C@H]3C[C@@H]4C[C@@H]4C[C@H]4CC[C@@H](C(=O)N5CC(c6cnccc6C)C5)N4C3=O)cc2c1 (stereo partly drawn) [Compound 283, propyl(2S)-2-(((fluoro(2-(((3S,6S,7aS,8aR,9aR)-3-(3-(4-methylpyridin-3-yl)azetidine-1-carbonyl)-5-oxodecahydro-1H-cyclopropa[d]pyrrolo[1,2-a]azocin-6-yl)carbamoyl)benzo[b]thiophen-5-yl)methyl)(phenoxy)phosphoryl)amino)butanoate] |  |  |  | IC50 (pSTAT3 (pY705-STAT3)): < 0.1 µM
CC(C)OC(=O)[C@H](C)NP(=O)(Cc1ccc2sc(C(=O)N[C@H]3C[C@@H]4C[C@@H]4C[C@H]4CC[C@@H](C(=O)N5CC(C(=O)N6CCOCC6)C5)N4C3=O)cc2c1)Oc1ccccc1Cl (stereo partly drawn) [Compound 191, isopropyl ((2-chlorophenoxy) ((2-(((3S,6S, 7aS,8aR,9aR)-3-(3-(morpholine-4-carbonyl)azetidine-1-carbonyl)-5-oxodecahydro-1H-cyclopropa[d]pyrrolo[1,2-a]azocin-6-yl)carbamoyl)benzo[b]thiophen-5-yl)methyl)phosphoryl)-L-alaninate] | 0.1 to 1 µM |  |  | 
C[C@]12C[C@H]3CC[C@@H](C(=O)N4CC(c5cccnc5)C4)N3C(=O)[C@@H](NC(=O)c3cc4cc(CP(=O)(O)O)ccc4s3)C[C@H]1C2 [Example 238, ((2-(((3S,6S,7aR,8aS,9aR)-8a-methyl-5-oxo-3-(3-(pyridin-3-yl)azetidine-1-carbonyl)decahydro-1H-cyclopropa[d]pyrrolo[1,2-a]azocin-6-yl)carbamoyl)benzo[b]thiophen-5-yl)methyl)phosphonic acid] |  | > 30 µM | 0.1 to 1 µM | 
O=C(N[C@H]1C[C@@H]2C[C@@H]2C[C@H]2CC[C@@H](C(=O)N3CC(c4nccs4)C3)N2C1=O)c1cc2cc(C(F)(F)P(=O)(O)O)ccc2s1 [Example 286, (difluoro(2-(((3S,6S,7aS,8aR,9aR)-5-oxo-3-(3-(thiazol-2-yl)azetidine-1-carbonyl)decahydro-1H-cyclopropa[d]pyrrolo[1,2-a]azocin-6-yl)carbamoyl)benzo[b]thiophen-5-yl)methyl)phosphonic acid] |  | 3 to 30 µM | < 0.1 µM | 
O=C(N[C@H]1C[C@@H]2C[C@@H]2C[C@H]2CC[C@@H](C(=O)N3CCC34CCCC4)N2C1=O)c1cc2cc(C(F)P(=O)(O)O)ccc2s1 (stereo partly drawn) [Example 389, (fluoro(2-(((3S,6S,7aS,8aR,9aR)-5-oxo-3-(1-azaspiro[3.4]octane-1-carbonyl)decahydro-1H-cyclopropa[d]pyrrolo[1,2-a]azocin-6-yl)carbamoyl)benzo[b]thiophen-5-yl)methyl)phosphonic acid] |  | 3 to 30 µM | 1 to 10 µM | 
O=C(N[C@H]1C[C@@H]2C[C@@H]2C[C@H]2CC[C@@H](C(=O)N[C@H]3CN(c4cccnc4)C[C@@H]3F)N2C1=O)c1cc2cc(CP(=O)(O)O)ccc2s1 [Example 256, ((2-(((3S,6S,7aS,8aR,9aR)-3-(((3S,4S)-4-fluoro-1-(pyridin-3-yl)pyrrolidin-3-yl)carbamoyl)-5-oxodecahydro-1H-cyclopropa[d]pyrrolo[1,2-a]azocin-6-yl)carbamoyl)benzo[b]thiophen-5-yl)methyl)phosphonic acid] |  | 3 to 30 µM | 0.1 to 1 µM | 
